Results as given in patent US7977375B2, “Antibiotic and method of production thereof” (Helmholtz-Zentrum Für Infektionsforschung GmbH, priority 2004, dated 2011).
Converted amounts (≈) assume the structure as drawn.

Legend:
MRSA 2 = experiment: MIC / MBC in liquid culture; format: cell-based, Staphylococcus aureus; details: MRSA 2
E. faecium VRAR E315 = experiment: MIC / MBC in liquid culture; format: cell-based, Enterococcus faecium; details: E. faecium VRAR E315
Candida krusei DSMZ6128 = experiment: kinetics of growth (FIG. 1E); format: cell-based; details: C. krusei; 128 μg/ml
Description: (§1) • FIG. 1A y-axis: Log CFU (Colony Forming Units) Cells/ml • x-axis: Time (HRS) • FIG. 1B y-axis: Log CFU (Colony Forming Units) Cells/ml • x-axis: Time (HRS) • FIG. 1C: y-axis: Log CFU (Colony Forming Units) Cells/ml • x-axis: Time (HRS) • FIG. 1D: y-axis: Log CFU (Colony Forming Units) Cells/ml • x-axis: Time (HRS) • FIG. 1E: y-axis: Log CFU (Colony Forming Units) Cells/ml • x-axis: Time (HRS) • FIG. 1F: y-axis: Log CFU (Colony Forming Units) Cells/ml • x-axis: Time (HRS) • FIG. 5A: y-axis: % Inhibition • x-axis Concentration μg/ml • FIG. 5B: y-axis: % Inhibition • x-axis Concentration μg/ml

[1] = system: Staphylococcus aureus MRSA 3; experiment: kinetics of growth at sub-MIC concentrations (FIG. 1B); format: cell-based; details: 1 or 4 μg/ml
Description: Investigation of the bacteriostatic activity of 7-O-malonyl macrolactin A required testing the effects of sub-MIC concentrations. […] 24 hours after treatment, the titre of viable cells was reduced by a factor of 100 as compared to the control without 7-O-malonyl macrolactin A.
as §1

E. faecalis VRAS E305 = experiment: agar diffusion method, inhibition zone; format: cell-based, Enterococcus faecalis; details: E. faecalis VRAS E305, MH agar, 18 hours at 37° C., per disk 10 μl crude extract, 50 μg macrolactin, 78 μg erythromycin, 30 μg vancomycin, 10 μg ampicillin
Description: (§2) The agar diffusion method employing Mueller-Hinton (MH) agar (Difco Laboratories) was used to determine effectiveness against bacteria and yeasts. Sterile paper disks (Schleicher & Schüell, Germany) were seeded with 10 μl crude extract or with a solution of purified macrolactin (final compound concentration on the disk 50 μg) and then placed on the surface of MH-agar plates that had been seeded beforehand with a suspension of overnight culture of the test microorganisms at a concentration of 10^5 cells/ml.

E. faecalis ATCC 29212 = experiment: agar diffusion method, inhibition zone; format: cell-based, Enterococcus faecalis; details: Enterococcus faecalis, ATCC29212; E. faecalis ATCC 29212; MH agar, 18 hours at 37° C.; per disk 10 μl crude extract, 50 μg macrolactin, 78 μg erythromycin, 30 μg vancomycin, 10 μg ampicillin
Description: as §2

## CC1CCC/C=C/C=C/C(O)CC(O)C/C=C\C=C\C(OC(=O)CC(=O)O)C/C=C/C=C\C(=O)O1 (stereo not drawn) [7-O-malonyl macrolactin A]
MRSA 2
  MIC (minimal inhibitory concentration): >128 µg/mL
MRSA 2; Staphylococcus aureus, pronounced inhibition of growth, read-out: MBC (minimal bacteriostatic or fungistatic concentration)
  MBC: 4 µg/mL (≈ 8.19 µM)
MRSA 2; Staphylococcus aureus, read-out: MIC (minimal inhibitory concentration)
  MIC: > 128 µg/mL
E. faecium VRAR E315
  MIC (minimal inhibitory concentration): >128 µg/mL
E. faecium VRAR E315; Enterococcus faecium, VRARE315, read-out: MBC (minimal bacteriostatic or fungistatic concentration)
  MBC: 4 µg/mL (≈ 8.19 µM)
E. faecium VRAR E315; Enterococcus faecium, VRARE315, read-out: MIC (minimal inhibitory concentration)
  MIC: > 128 µg/mL
Candida krusei DSMZ6128
  growth inhibited by a factor: ≤ 10
[1]; 24 hours after treatment
  titre of viable cells reduced by a factor, compared to control: 100
[1]; after 4 hours
  effect on kinetics of growth: almost completely inhibited
E. faecalis VRAS E305
  Inhibition zone: produced an inhibition zone
E. faecalis VRAS E305; Enterococcus faecalis, VRASE305
  zone of inhibition at 50 µg/disc: 15 mm
E. faecalis ATCC 29212
  zone of inhibition at 50 µg/disc: 25 mm
